US12377065B2, “Compositions for treatment of substance use disorder” (UNIVERSITY OF NORTH TEXAS HEALTH SCIENCE CENTER, priority 2019, dated 2025)
Each block holds one compound with its values, some of them ahead of it.

Experiments:
Swiss-Webster mice [1] = experiment: Cocaine-conditioned locomotor response, acquisition and expression (Example 2)
Swiss-Webster mice [2] = experiment: Acute cocaine-induced hyperlocomotion (Example 2); details: cocaine 40 mg/kg; for effect on acute cocaine-induced hyperlocomotion: all doses tested, i.p., ANOVA effect of treatment
Swiss-Webster mice [3] = experiment: Nicotine-induced locomotor activity test; assay type: in vivo; details: 60-90 min; for motor activity, compound alone: no nicotine, vs vehicle
Method: Test Compounds. […] Chantix (varencline, 3 mg/kg) was obtained from National Institute on Drug Abuse. All drugs were dissolved in 0.9% saline and pH was maintained at 7.
Testing Procedures. […] In all studies, horizontal activity (interruption of photocell beams) was measured for 120 min within 10-min periods.
Different groups of Swiss-Webster mice were pretreated via injection (IP) with either DMTU (5 or 10 mg/kg), or Chantix (varenicline, 3 mg/kg) or vehicle (0.9% saline) for 30 minutes (FIG. 10). Following pretreatment all groups were mice were injected via the subcutaneous (sc) route with either 0.9% saline or r nicotine (1.6 mg/kg) just prior to placement in the activity chamber. The activity of all mice were recorded for a period of 2-h (FIG. 10).

Swiss-Webster mice [4] = experiment: Cocaine-conditioned locomotor activity, expression test (Example 1); details: last 15 minutes, vs Paired-vehicle, cocaine 40 mg/kg
mice = experiment: Cocaine-conditioned place preference; assay type: in vivo
Method: All mice underwent standard place conditioning. As depicted in FIG. 3, the procedures of the first four days were identical to those described previously (Shetty et al., 2017). A preference score was calculated for each individual mouse using the following equation: Time spent on S+ (at test)−Time spent on S+ (at pretest). The preference score assesses the nature and magnitude of drug conditioning to the S+ floor, with positive numbers reflecting an increase in preference for S+ following the experience with cocaine and negative numbers indicating a decrease in preference following experience with cocaine. A second test session was conducted 24 hours later (on day 5). This test was identical to the test session on day 4 except that 30 minutes prior to testing, mice were pretreated with either 5 or 10 mg/kg DMTU (i.p.). A preference score was calculated after the second test in a similar fashion as described for the first preference test.
Data Analysis. […] The existence of subgroups was determined through application of K-means clustering analysis (SYSTAT v. 13.1). In this fashion, Test 1 data was partitioned into 3 subgroups: mice with high positive preference scores (labeled as High Seeker group), mice with low positive preference scores (labeled as Low Seeker group), and mice with negative preference scores (labeled as Avoider group).
Data from the mice treated with 5 mg/kg DMTU during Test 2 were analyzed separately from data from mice treated with 10 mg/kg DMTU. Separate one-way repeated measures analysis of variance (ANOVA) was conducted, with test (comparison of preference score on test day 1 and day 2) as a within-subject factor.
To assess the ability of DMTU (by either the 5 mg/kg or 10 mg/kg dose) to reduce cocaine-induced preference on different subsets of mice, within-subject planned comparisons of preference scores on test 1 and 2 were performed for each cluster separately (Avoider, Low Seeker, High Seeker). Alpha was set to 0.05.

[5] = all doses tested, i.p., ANOVA effect of treatment, last 15 min

SMILES: COc1cc(C(C)=O)ccc1O [Apocynin, apocynin]
- expression of the cocaine-conditioned locomotor response (Swiss-Webster mice [1]; 25 mg/kg i.p., initial 15 min of the test, post hoc): facilitated expression of the conditioned response
- acquisition of the cocaine-conditioned locomotor response (Swiss-Webster mice [1]; [5]): no effect on acquisition
- expression of the cocaine-conditioned locomotor response (Swiss-Webster mice [1]; [5]): no effect on expression
- effect on acute cocaine-induced hyperlocomotion (Swiss-Webster mice [2]): no significant main effect

- motor activity, compound alone (Swiss-Webster mice [3]; 3 mg/kg IP alone): significant reduction
SMILES: c1cnc2cc3c(cc2n1)[C@@H]1CNC[C@H]3C1 [Chantix, varenicline]
- motor activity with nicotine (Swiss-Webster mice [3]; 3 mg/kg IP 30 min pretreatment + nicotine 1.6 mg/kg sc): significant reduction

- motor activity, compound alone (Swiss-Webster mice [3]; DMTU alone (5 or 10 mg/kg IP)): failed to alter the motor activity
SMILES: CNC(=S)NC [DMTU, N,N′-dimethylthiourea]
- expression of cocaine-conditioned locomotor activity (horizontal activity, counts) (Swiss-Webster mice [4]; 5 mg/kg i.p. 30 min before expression test): did not affect activity
- expression of cocaine-conditioned locomotor activity (horizontal activity, counts) (Swiss-Webster mice [4]; 10 mg/kg i.p. 30 min before expression test): significantly inhibited cocaine-conditioned locomotor activity
- nicotine-induced stimulant locomotor activity (horizontal activity, counts) (Swiss-Webster mice [3]; 5 mg/kg IP 30 min pretreatment + nicotine 1.6 mg/kg sc, only 10 mg/kg was significant): modulated nicotine induced stimulant action
- nicotine-induced stimulant locomotor activity (horizontal activity, counts) (Swiss-Webster mice [3]; 10 mg/kg IP 30 min pretreatment + nicotine 1.6 mg/kg sc, vs nicotine alone): significantly reduced the nicotine stimulant activity
- acquisition of the cocaine-conditioned locomotor response (Swiss-Webster mice [1]; 50 mg/kg i.p., post-hoc): significantly attenuated acquisition
- expression of the cocaine-conditioned locomotor response (Swiss-Webster mice [1]; 25-50 mg/kg i.p., post-hoc): significantly attenuating expression
- ED50:AD50 ratio (Swiss-Webster mice [1]): 4.676
- acquisition of the cocaine-conditioned locomotor response (Swiss-Webster mice [1]; [5]): significant main effect
- expression of the cocaine-conditioned locomotor response (Swiss-Webster mice [1]; [5]): significant effect on expression
- cocaine-conditioned place preference score, Test 2 vs Test 1 (mice; 5 mg/kg i.p. 30 min before Test 2, clusters combined, cocaine 15 mg/kg): not significantly altered
- cocaine-conditioned place preference score, Test 2 vs Test 1 (mice; 5 mg/kg i.p., Avoider group): Neither dose of DMTU succeeded in blocking preference scores
- cocaine-conditioned place preference score, Test 2 vs Test 1 (mice; 5 mg/kg i.p., High Seeker subset): significantly reduced preference scores
- cocaine-conditioned place preference score, Test 2 vs Test 1 (mice; 5 mg/kg i.p., Low Seeker group): Neither dose of DMTU succeeded in blocking preference scores
- cocaine-conditioned place preference score, Test 2 vs Test 1 (mice; 10 mg/kg i.p. 30 min before Test 2, clusters combined, cocaine 15 mg/kg): not significantly altered
- cocaine-conditioned place preference score, Test 2 vs Test 1 (mice; 10 mg/kg i.p., Avoider group): Neither dose of DMTU succeeded in blocking preference scores
- cocaine-conditioned place preference score, Test 2 vs Test 1 (mice; 10 mg/kg i.p., High Seeker subset): significantly reduced preference scores
- cocaine-conditioned place preference score, Test 2 vs Test 1 (mice; 10 mg/kg i.p., Low Seeker group): Neither dose of DMTU succeeded in blocking preference scores
- effect on acute cocaine-induced hyperlocomotion (Swiss-Webster mice [2]): no significant main effect

SMILES: CC(=O)N[C@@H](CS)C(=O)O [NAC, N-acetylcysteine]
- expression of the cocaine-conditioned locomotor response (Swiss-Webster mice [1]; 100 mg/kg i.p., post-hoc): significant attenuation
- acquisition of the cocaine-conditioned locomotor response (Swiss-Webster mice [1]; 250 mg/kg i.p., post-hoc vs paired control): significantly attenuated acquisition
- ED50:AD50 ratio (Swiss-Webster mice [1]): 1.2731
- acquisition of the cocaine-conditioned locomotor response (Swiss-Webster mice [1]; [5]): no significant main effect
- expression of the cocaine-conditioned locomotor response (Swiss-Webster mice [1]; [5]): main effect
- effect on acute cocaine-induced hyperlocomotion (Swiss-Webster mice [2]): no significant main effect

SMILES: O=C1O[C@H]([C@@H](O)CO)C(O)=C1O [Vitamin C, L-ascorbic acid]
- acquisition of the cocaine-conditioned locomotor response (Swiss-Webster mice [1]; 100 mg/kg i.p., initial 15 min of the test, post-hoc): facilitated acquisition of the conditioned locomotor response
- acquisition of the cocaine-conditioned locomotor response (Swiss-Webster mice [1]; [5]): failed to attenuate acquisition
- expression of the cocaine-conditioned locomotor response (Swiss-Webster mice [1]; [5]): failed to attenuate
- effect on acute hyperkinetic effect of cocaine (Swiss-Webster mice [2]; 100 mg/kg i.p.): facilitated the acute hyperkinetic effect of cocaine

SMILES: Cc1c(C)c2c(c(C)c1O)CC[C@@](C)(CCC[C@H](C)CCC[C@H](C)CCCC(C)C)O2 [Vitamin E, (+)-alpha-tocopherol]
- acquisition of the cocaine-conditioned locomotor response (Swiss-Webster mice [1]; [5]): failed to attenuate acquisition
- expression of the cocaine-conditioned locomotor response (Swiss-Webster mice [1]; [5]): failed to attenuate
- effect on acute cocaine-induced hyperlocomotion (Swiss-Webster mice [2]): had no effect on the acute effect of cocaine
